Laboratory results reported in ChEMBL document CHEMBL1909046, “DrugMatrix in vitro pharmacology data”.

What was measured:
[1] = molecular target: Sigma non-opioid intracellular receptor 1 (Homo sapiens, UniProt Q99720); test: DRUGMATRIX: Sigma1 radioligand binding (ligand: [3H] Haloperidol); assay type: cell membranes, Jurkat, Membrane; settings: jurkat; Not Active = under 50% inhibition at 10 µM
[2] = molecular target: T1, Angiotensin-converting enzyme (Oryctolagus cuniculus, UniProt P12822); assay type: tissue-based, Lung;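 note: enzymatic inhibition of angiotensin-converting enzyme measured with FAPGG as the substrate; in other assays of this panel Not Active means under 50% inhibition at 10 µM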
T1 sequence (P12822 whole entry): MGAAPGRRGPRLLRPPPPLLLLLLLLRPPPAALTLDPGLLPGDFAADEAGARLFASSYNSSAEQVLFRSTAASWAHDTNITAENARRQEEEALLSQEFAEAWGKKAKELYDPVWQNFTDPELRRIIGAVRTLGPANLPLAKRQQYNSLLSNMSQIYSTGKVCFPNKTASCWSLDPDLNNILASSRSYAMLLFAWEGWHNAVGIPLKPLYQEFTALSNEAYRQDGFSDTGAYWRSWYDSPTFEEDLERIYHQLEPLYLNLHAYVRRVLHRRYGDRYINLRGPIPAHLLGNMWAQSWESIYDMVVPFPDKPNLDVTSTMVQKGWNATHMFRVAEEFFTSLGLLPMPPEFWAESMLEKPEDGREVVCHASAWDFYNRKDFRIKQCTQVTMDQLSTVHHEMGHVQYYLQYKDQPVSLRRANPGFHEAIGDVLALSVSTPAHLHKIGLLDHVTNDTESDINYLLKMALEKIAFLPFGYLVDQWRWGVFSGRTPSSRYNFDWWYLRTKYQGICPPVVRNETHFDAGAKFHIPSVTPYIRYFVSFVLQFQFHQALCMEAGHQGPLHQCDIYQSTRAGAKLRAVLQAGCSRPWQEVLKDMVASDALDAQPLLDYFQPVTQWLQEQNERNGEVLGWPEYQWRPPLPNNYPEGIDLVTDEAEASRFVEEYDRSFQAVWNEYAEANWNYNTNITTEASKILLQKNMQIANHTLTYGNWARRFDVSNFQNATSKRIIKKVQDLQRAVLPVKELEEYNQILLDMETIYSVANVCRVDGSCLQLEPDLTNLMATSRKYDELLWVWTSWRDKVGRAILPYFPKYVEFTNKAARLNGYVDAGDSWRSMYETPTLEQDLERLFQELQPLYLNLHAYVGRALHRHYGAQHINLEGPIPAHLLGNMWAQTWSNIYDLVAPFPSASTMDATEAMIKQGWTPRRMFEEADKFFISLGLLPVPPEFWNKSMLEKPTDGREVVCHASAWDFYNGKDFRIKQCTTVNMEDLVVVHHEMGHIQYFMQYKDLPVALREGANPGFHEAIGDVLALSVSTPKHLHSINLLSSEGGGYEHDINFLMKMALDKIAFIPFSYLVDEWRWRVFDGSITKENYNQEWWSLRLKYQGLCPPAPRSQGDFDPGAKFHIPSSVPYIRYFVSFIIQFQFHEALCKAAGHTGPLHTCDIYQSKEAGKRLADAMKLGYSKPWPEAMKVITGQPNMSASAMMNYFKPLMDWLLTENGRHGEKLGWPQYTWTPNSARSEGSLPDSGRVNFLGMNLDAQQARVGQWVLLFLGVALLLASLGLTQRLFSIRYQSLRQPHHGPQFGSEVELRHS

[3] = molecular target: 5-hydroxytryptamine receptor 4 (Cavia porcellus, UniProt O70528); assay type: cell membranes, Dunkin-Hartley, Striatum, Membrane; note: in other assays of this panel Not Active means under 50% inhibition at 10 µM
Sequence of 5-hydroxytryptamine receptor 4 (O70528 whole entry): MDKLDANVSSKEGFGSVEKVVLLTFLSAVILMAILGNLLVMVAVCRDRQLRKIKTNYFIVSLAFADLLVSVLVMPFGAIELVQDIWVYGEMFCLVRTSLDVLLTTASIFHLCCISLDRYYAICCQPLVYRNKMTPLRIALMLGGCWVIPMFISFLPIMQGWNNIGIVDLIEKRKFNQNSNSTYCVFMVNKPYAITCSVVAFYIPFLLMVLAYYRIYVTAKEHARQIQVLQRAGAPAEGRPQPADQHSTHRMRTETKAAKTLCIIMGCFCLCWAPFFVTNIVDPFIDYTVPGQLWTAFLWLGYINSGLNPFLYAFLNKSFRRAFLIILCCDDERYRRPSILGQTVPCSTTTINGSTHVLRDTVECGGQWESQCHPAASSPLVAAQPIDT

[4] = molecular target: 5-hydroxytryptamine receptor 6 (Homo sapiens, UniProt P50406); assay type: cell membranes, HeLa, Membrane; note: in other assays of this panel Not Active means under 50% inhibition at 10 µM
Sequence of 5-hydroxytryptamine receptor 6 (P50406 whole entry): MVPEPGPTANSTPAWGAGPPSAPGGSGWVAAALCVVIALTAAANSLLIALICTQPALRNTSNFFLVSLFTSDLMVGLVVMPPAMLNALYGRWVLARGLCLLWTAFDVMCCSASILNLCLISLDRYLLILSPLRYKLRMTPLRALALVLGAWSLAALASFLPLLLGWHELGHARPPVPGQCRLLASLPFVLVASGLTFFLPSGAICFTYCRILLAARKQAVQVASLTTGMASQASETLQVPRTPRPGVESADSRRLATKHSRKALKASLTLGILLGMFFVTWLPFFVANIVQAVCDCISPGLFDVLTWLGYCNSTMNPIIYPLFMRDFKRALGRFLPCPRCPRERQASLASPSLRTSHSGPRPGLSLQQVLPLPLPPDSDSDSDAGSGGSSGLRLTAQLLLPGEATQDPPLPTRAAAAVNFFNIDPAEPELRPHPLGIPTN

[5] = DRUGMATRIX: Sigma2 radioligand binding (ligand: [3H] Ifenprodil); assay type: cell membranes, Rattus norvegicus, Wistar, Brain, Membrane; settings: Not Active = under 50% inhibition at 10 µM

Sequence of Sigma non-opioid intracellular receptor 1 (Q99720 whole entry): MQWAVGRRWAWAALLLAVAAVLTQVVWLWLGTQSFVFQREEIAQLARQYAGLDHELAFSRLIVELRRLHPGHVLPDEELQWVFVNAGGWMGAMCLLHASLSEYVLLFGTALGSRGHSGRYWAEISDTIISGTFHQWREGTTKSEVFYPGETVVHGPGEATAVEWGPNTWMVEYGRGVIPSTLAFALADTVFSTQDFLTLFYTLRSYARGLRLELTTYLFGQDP

| SMILES | IC50 [1] | IC50 [2] | IC50 [3] | IC50 ([4]; hela) | IC50 [5] | Ki [5] | IC50 ([3]; read-out: IC50) [nM] | Ki ([3]; read-out: Ki) [nM] | IC50 ([4]; read-out: IC50) [nM] | Ki ([4]; read-out: Ki) [nM] |
| --- | --- | --- | --- | --- | --- | --- | --- | --- | --- | --- |
| CCC[C@@H]1C[C@@H](C(=O)N[C@@H]([C@H]2O[C@H](SC)[C@H](O)[C@@H](O)[C@H]2O)[C@H](C)Cl)N(C)C1 [CLINDAMYCIN] | Not Active | Not Active | Not Active | Not Active | Not Active | Not Active |  |  |  |  |
| CN1C(=O)CN=C(c2ccccc2)c2cc(Cl)ccc21 [DIAZEPAM] | Not Active | Not Active | Not Active | Not Active | Not Active | Not Active |  |  |  |  |
| CN1C[C@H](C(=O)N[C@]2(C)O[C@@]3(O)[C@@H]4CCCN4C(=O)[C@H](Cc4ccccc4)N3C2=O)C[C@@H]2c3cccc4[nH]cc(c34)C[C@H]21 [DIHYDROERGOTAMINE] | Not Active | Not Active |  |  | Not Active | Not Active | 940 | 157 | 3.2 | 1.49 |
| O=C(O)Cc1ccc(-c2ccccc2)cc1 [FELBINAC] | Not Active | Not Active | Not Active | Not Active | Not Active | Not Active |  |  |  |  |
| CCOC(=O)C1=C(C)NC(C)=C(C(=O)OC)C1c1cccc(Cl)c1Cl (stereo unspecified) [FELODIPINE] | Not Active | Not Active | Not Active | Not Active | Not Active | Not Active |  |  |  |  |
| Cc1cn[nH]c1 [FOMEPIZOLE] | Not Active | Not Active | Not Active | Not Active | Not Active | Not Active |  |  |  |  |
| Cc1cnc(C(=O)NCCc2ccc(S(=O)(=O)NC(=O)NC3CCCCC3)cc2)cn1 [GLIPIZIDE] | Not Active | Not Active | Not Active | Not Active | Not Active | Not Active |  |  |  |  |
| COc1ccccc1OCC(O)CO (stereo unspecified) [GUAIFENESIN] | Not Active | Not Active | Not Active | Not Active | Not Active | Not Active |  |  |  |  |
| C/C=C\c1ccc(O)c(OC)c1 [ISOEUGENOL] | Not Active | Not Active | Not Active | Not Active | Not Active | Not Active |  |  |  |  |
| CC[C@H](C)C(=O)O[C@H]1C[C@@H](C)C=C2C=C[C@H](C)[C@H](CC[C@@H]3C[C@@H](O)CC(=O)O3)[C@H]21 [LOVASTATIN] | Not Active | Not Active | Not Active | Not Active | Not Active | Not Active |  |  |  |  |
| CNC(=C[N+](=O)[O-])NCCSCc1csc(CN(C)C)n1 [NIZATIDINE] | Not Active | Not Active | Not Active | Not Active | Not Active | Not Active |  |  |  |  |
| COc1ccc(Cc2nccc3cc(OC)c(OC)cc23)cc1OC [PAPAVERINE] | Not Active | Not Active | Not Active | Not Active | Not Active | Not Active |  |  |  |  |
| OCCN1CCN(CCCN2c3ccccc3Sc3ccc(Cl)cc32)CC1 [PERPHENAZINE] | Not Active | Not Active | Not Active | Not Active | Not Active | Not Active |  |  |  |  |
| CC(C)(Sc1cc(C(C)(C)C)c(O)c(C(C)(C)C)c1)Sc1cc(C(C)(C)C)c(O)c(C(C)(C)C)c1 [PROBUCOL] | Not Active | Not Active | Not Active | Not Active | Not Active | Not Active |  |  |  |  |
